Consider one molecule from US7462635B2, “Thiazole and oxazole VDAC regulator” (Takeda Pharmaceutical Company Limited, priority 2002, dated 2008).

Assay [1] has as its target T1, voltage-dependent anion channel (VDAC)-1 (Homo sapiens, UniProt P21796).
T1 construct: protein was extracted from the nuclear fraction of human neuroblastoma SK-N-SH (ATCC); endogenous in cells; host or cells: SK-N-SH human neuroblastoma cells (ATCC)
Briefly: Identification of Compound (5)-binding protein: elution from Compound A-immobilized latex particles, SDS-PAGE, TOF-MS, immunoblotting. Conditions: SK-N-SH nuclear fraction protein; elution with 300 μM Compound (5), 4° C., 1.5 hours; silver staining. On the procedure:
(§1) After 5 mg of carboxyl group-type latex particles obtained in Reference Example 1 was dispersed in dioxane, 23 mg of N-hydroxysuccinimide and 38 mg of water-soluble carbodiimide were added, and they were reacted at room temperature (about 20 to 25° C., the same applies below) for 2 hours. After the obtained succinimide-immobilized particles were washed with methanol, they were reacted with 4 mM Compound A (amino derivative of Compound (5)) in 0.5 mL of 0.2M sodium acetate buffer solution (pH 5.3) at room temperature for 1 hour to thereby immobilize Compound A onto the particles. To the obtained particles, 1M aqueous solution of ethanolamine-hydrochloric acid (pH 8.5) was added, and they were reacted at room temperature or 2 hours to thereby block unreacted groups in the succinimide-immobilized particles, after which the particles were washed with 50% methanol and water to give Compound A-immobilized particles. The Compound A-immobilized particles were dispersed in water to obtain a concentration of 10 mg/mL and stored under refrigeration. […]
(§2) Subsequently, centrifugation (15, 000×g, 5 minutes) was carried out, the supernatant was removed, and the obtained particles were washed with 0.05TGEMN buffer. […] After centrifugation (15, 000×g, 5 minutes), the protein-containing supernatant was analyzed by SDS-PAGE. […]
For orientation: Immunoblotting shows a protein as a band on a membrane.

In assay [2] the target is T2, VDAC-3 (Homo sapiens, UniProt Q9Y277).
T2 construct: protein was extracted from the nuclear fraction of human neuroblastoma SK-N-SH (ATCC); endogenous in cells; host or cells: SK-N-SH human neuroblastoma cells (ATCC)
T2 sequence (Q9Y277 1-283): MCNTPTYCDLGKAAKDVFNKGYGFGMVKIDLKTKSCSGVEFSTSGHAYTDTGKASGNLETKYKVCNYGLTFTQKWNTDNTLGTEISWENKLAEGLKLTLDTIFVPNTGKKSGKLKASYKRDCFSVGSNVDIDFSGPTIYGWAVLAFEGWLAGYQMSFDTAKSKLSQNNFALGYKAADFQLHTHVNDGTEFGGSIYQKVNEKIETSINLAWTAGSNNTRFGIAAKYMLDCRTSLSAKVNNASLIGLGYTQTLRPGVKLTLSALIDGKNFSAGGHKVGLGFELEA
Description: Identification of Compound (5)-binding protein: elution from Compound A-immobilized latex particles, SDS-PAGE, TOF-MS. Conditions: SK-N-SH nuclear fraction protein; elution with 300 μM Compound (5), 4° C., 1.5 hours; silver staining. On the procedure:
as §1, §2

Assay [3] deals with PC12 cells. Description: Cytochrome c leakage suppressing action (cytochrome c ELISA of cytoplasmic protein). The class given is cell-based. The settings on record: DMEM with 0.5% FCS, 0.3 μmol/L Compound (5), 16 hours, 0.5% FCS group without compound 19.4. On the procedure:
The effect of Compound (5) on VDAC function was evaluated by determining the amount of cytochrome c leakage in the cytoplasm of PC12 cells.
PC12 cells, pre-cultured in a DMEM (Dulbecco's Modified Eagle's Medium) containing 10% FCS (Fetal Calf Serum), were sown to a culture dish of 10 cm diameter (Falcon) and cultured until they became nearly confluent. After the culture dish was washed with DMEM, a DMEM containing 0.5% FCS (0.5% FCS group) or a DMEM containing 0.5% FCS and 0.3 μmol/L Compound (5) (0.5% FCS+Compound (5) group) was added, and the cells were further cultured for 16 hours. The cells suspended in the culture broth and the cells adhering to the culture dish, detached by trypsin-EDTA treatment, were recovered. The recovered cells, after being washed with PBS, were ice-cooled in a digitonin solution [10 mmol/L HEPES, 0.3 mol/L mannitol, 0.1% (w/v) BSA, 100 μmol/L digitonin] (100 μL) for 5 minutes to extract cytoplasmic protein. After the obtained cytoplasmic protein was centrifuged at 8500×g for 5 minutes, 12 μL of the supernatant was analyzed using an assay kit [cytochrome c ELISA kit (MBL) and […] (Pierce), respectively] to determine its cytochrome c content and protein content. Subsequently, the cytochrome c content per unit amount of total protein was calculated, and this was taken as the amount of cytochrome c leakage (ng/mg). The results are shown in [Table 1].
A general note: ELISA stands for enzyme-linked immunosorbent assay.

The test system of assay [4] is PC12 cells. Description: Apoptosis-suppressing action: nucleosome content (Cell Death Detection ELISA), low serum-induced apoptosis. The format is cell-based. The settings on record: DMEM with 0.5% FCS, 0.3 μmol/L Compound (5), 24 hours, 10% FCS group = 100%, 0.5% FCS group 422. On the procedure:
The apoptosis-suppressing action of Compound (5) was evaluated by determining the nucleosome content in PC12 cells.
PC12 cells, pre-cultured in a DMEM containing 10% FCS, were sown to a 24-well culture plate to obtain a concentration of 6×10^4 cells/well, and cultured for 24 hours. After the culture plate was washed with DMEM, a DMEM containing 0.5% FCS (0.5% FCS group) or a DMEM containing 0.5% FCS and 0.3 μmol/L Compound (5) (0.5% FCS+Compound (5) group) was added, and the cells were further cultured for 24 hours. Also, as a control group, the same procedures were carried out using a DMEM containing 10% FCS (10% FCS group). The cells suspended in the culture broth and the cells adhering to the culture plate, detached by trypsin-EDTA treatment, were recovered. According to the protocol of an apoptosis assay kit with nucleosome detection as an index (Cell Death Detection ELISA, Roche), the recovered cells were suspended in 500 μL of the cytolytic solution attached to said assay kit. After the suspension was ice-cooled for 30 minutes, it was centrifuged at 15, 000 rpm for 10 minutes and 400 μL of the supernatant was recovered. Said supernatant was diluted 2 fold and subjected to ELISA to determine its nucleosome content. Subsequently, taking the nucleosome content in the 10% FCS group as 100%, percentage in each group was calculated. The results are shown in [Table 2].

Assay [5] concerns PC12 cells. Description: Mitochondria respiration activity-increasing action using Alamar Blue. The format is cell-based. Conditions: FCS-free DMEM, 3 μmol/L, 3 hours, B-27 addition group = 100%, non-addition group 73.2%±1.9%, mean±standard deviation, n=7. How it is done:
The mitochondria respiration activity-increasing action of Compound (5) was evaluated using Alamar Blue.
After PC12 cells, pre-cultured in a DMEM containing 10% fetal calf serum (FCS), were suspended in the same medium to obtain a concentration of 2×10^5 cells/mL, the obtained suspension was sown to a 96-well culture plate to obtain a concentration of 0.1 mL/well and cultured for 24 hours. After said culture plate was washed with DMEM, a solution obtained by diluting Compound (5) in FCS-free DMEM to obtain a concentration of 3 μmol/L was added, and cultivation was carried out for 3 hours [Compound (5) addition group]. […]
Subsequently, to each well of the culture plate, 10 μL of Alamar Blue solution (Alamar Biosciences), which is a mitochondria respiration activity indicator, was added; fluorescence just after the addition and after the plate was allowed to stand in a 5% CO2 incubator at 37° C. for 10 minutes was determined using a Fluoroscan (Flow Laboratories) [excitation wavelength (Ex.): 538 nm, emission wavelength (Em.): 590 nm], and its variation was obtained.
Furthermore, taking the fluorescence variation in the B-27 addition group as 100%, relative values of fluorescence variation in the Compound (5) addition group and the Compound (5) non-addition group were calculated.

Assay [6] has as its system PC12 cells. Briefly: Mitochondria membrane potential-stabilizing action using Rodamin 123. The class given is cell-based. Conditions: FCS-free DMEM, 3 μmol/L, 4 hours, FCS addition group = 100%, non-addition group 131.2±12.9%, mean±standard deviation, n=8. How it is done:
The mitochondria membrane potential-stabilizing action of Compound (5) was evaluated using Rodamin 123 (trade name, Molecular Probe).
After PC12 cells, pre-cultured in a DMEM containing 10% fetal calf serum (FCS), were suspended in the same medium to obtain a concentration of 2×10^5 cells/mL, the obtained suspension was sown to a 96-well culture plate to obtain a concentration of 0.1 mL/well and cultured for 24 hours. After said culture-plate was washed with DMEM, a solution obtained by diluting Compound (5) in FCS-free DMEM to obtain a concentration of 3 μmol/L was added, and cultivation was carried out for 4 hours [Compound (5) addition group]. […]
Subsequently, to each well of the culture plate, Rodamin 123 (trade name, Molecular Probe), which is a mitochondria membrane potential indicator, was added to obtain a concentration of 1 μmol/L; fluorescence just after the addition and after the plate was allowed to stand in a 5% CO2 incubator at 37° C. for 10 minutes was determined using a Fluoroscan (Flow Laboratories) [excitation wavelength (Ex.): 485 nm, emission wavelength (Em.): 538 nm], and its variation was obtained.
Furthermore, taking the fluorescence variation in the FCS addition group as 100%, relative values of fluorescence variation in the Compound (5) addition group and the Compound (5) non-addition group were calculated.

Structures are written as SMILES.

T1 sequence (P21796 whole entry): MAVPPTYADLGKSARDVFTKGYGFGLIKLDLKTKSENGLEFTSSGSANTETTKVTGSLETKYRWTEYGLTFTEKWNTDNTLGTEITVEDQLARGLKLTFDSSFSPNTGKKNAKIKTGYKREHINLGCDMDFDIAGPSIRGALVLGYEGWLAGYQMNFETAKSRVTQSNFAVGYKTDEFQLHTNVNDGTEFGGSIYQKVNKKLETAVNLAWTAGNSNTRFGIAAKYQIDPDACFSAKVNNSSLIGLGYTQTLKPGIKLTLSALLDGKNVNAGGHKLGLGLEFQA

Regarding `Cc1ccccc1OCCCc1oc(-n2ccnc2C)nc1-c1ccc(Cl)cc1` [Compound (5), 4-(4-chlorophenyl)-2-(2-methyl-1-imidazolyl)-5-[3-(2-methylphenoxy)propyl]oxazole], in assay [1], the “about 32 kDa protein band (VDAC-1) eluted from Compound A-immobilized particles” value is “eluted selectively”. The “about 30 kDa protein band (VDAC-3) eluted from Compound A-immobilized particles” value in assay [2] is listed as “eluted selectively”. Moreover, the “Amount of cytochrome c leakage” value in assay [3] is listed as 7.0 ng/mg. The Nucleosome content in assay [4] is given as 176%. Further, in assay [5], the “fluorescence variation (Alamar Blue), relative value” is given as 126.7%±15.7%. Also, in assay [6], the “fluorescence variation (Rodamin 123), relative value” is recorded as 110.0%±8.0%.
